Test results: patent publication US10696731B2, “Oligopeptide-free cell culture media” (Baxalta GmbH, priority 2006, dated 2020)

How the values were obtained:
[1] = tested on: GD8/6 cells; assay: Small scale spinner flask culture of GD8/6 cells in BAV-medium: FVIII productivity and growth rate; details: added to BAV-medium, range 0-18 mg/L; spinner flasks 200 ml
Protocol: Cell counts from suspension cells or immobilized cells were determined either by counting with a CASY® cell counter as described by Scharfe et al., Biotechnologie in LaborPraxis 10: 1096-1103 (1988), or by citric acid extraction and fluorescent staining of the nuclei followed by counting with a NucleoCounter® (Chemometec, DK). The specific growth rate (p) is calculated from the increase of the cell densities(Xt) and/or the dilution rate (D) of the steady state of chemostat cultures of suspensions cells over a certain time interval (t): μ=D+ln(Xt/XO)/t
The activity of Factor VIII (FVIII) (cf. FIGS. 1 to 5) was measured by a chromogenic assay (Chromogenic, Sweden).
The cell specific productivity (qp) is defined as the specific amount of produced protein (U or μg) per number of cells per day.
Small scale experiments with GD8/6 cells in suspension culture were carried out in Techne spinner flasks at 200 ml working volume in batch refeed mode at 37° C., without pH and pO2 control.

[2] = tested on: GD8/6 cells; assay: FVIII expression and growth of GD8/6 cells in 10 L chemostat culture with BAV-medium; assay type: cell-based
Protocol: The volumetric productivity (QP) is calculated from the amount of activity units yielded per liter reactor volume per day (U/L/d) in the production system.
Cell cultures of recombinant mammalian cells (e.g., CHO-cells stably expressing Factor VIII, such as GD8/6 cells) were grown in suspension in a chemostat culture in 10 l bioreactors. The culture conditions of 37° C., oxygen saturation 20%, and pH 7.0 to 7.1 were kept constant. The cultures were supplied with a constant feed of BAV-medium.

[3] = 2 mg/L plus additional supplementation with Fe (II) and Cu (II)

NCCC[C@H](N)C(=O)O [Ornithine]
ability to substitute putrescine (FVIII productivity and growth) [1]: could partially substitute putrescine in a concentration-dependent manner

NCCCCN [Putrescine.2HCl]
volumetric productivity ([2]; 2 mg/L plus Fe (II) and Cu (II), after a further increase of the cell density): over 3000 U/L/D | cell specific productivity [2, 3]: over 1700 mU/10E06 cells/day | specific growth rate [2, 3]: approximately 0.60 d^−1 | volumetric productivity [2, 3]: over 2685 U/L/D | increase of volumetric FVIII-expression ([2]; addition of 2 mg/L after 11 days of continuous feed of BAV-medium, 10 L bioreactor): 800% | FVIII expression (volumetric productivity) ([2]; addition of 2 mg/L, BAV-medium without it averaged 271 U/L/D): 870 U/L/D

NCCO [ethanolamine, reference compound]
ability to substitute putrescine (FVIII productivity and growth) [1]: could neither replace putrescine in any concentration investigated

NCCCNCCCCNCCCN [spermine]
ability to substitute putrescine (FVIII productivity and growth) [1]: could also substitute putrescine in a concentration-dependent manner
